Measurements as given in patent US11215608B2, “Methods of determining cellular chemosensitivity” (Dana-Farber Cancer Institute, Inc., priority 2006, dated 2022).

Legend:
BAX [1] = test: BAX oligomerization in CLL cells; type: cell-based, human; conditions: 4 hours
Method: 10^7 freshly isolated CLL cells were incubated with DMSO, 10 nM, 100 nM, or 1 μM ABT-737 or negative control enantiomer for 4 hours, % dead assessed by Annexin-V staining and FACS analysis, then treated with 0.3% saponin and 10 μM BMH for 30 minutes on ice. Cells were then lysed, loaded onto a 10% BISTris polyacrlyamide gel, transferred, and immunoblotted for BAX.

BAX [2] = test: BAX oligomerization / activation in mitochondria of IL-3 starved FL5.12-BCL-2 cells; type: biochemical, murine
Method: Mitochondria were isolated from wt FL5.12 cells and FL5.12-BCL-2 cells in the presence of IL-3, and from FL5.12-BCL-2 cells following 24 hours of IL-3 deprivation. […] Mitochondrial pellets were subjected to chemical crosslinking as previously described (Letai et al., 2002).
This model predicts that BCL-2 acts upstream of BAX activation by intercepting activator BH3 molecules. To test this prediction, in FIG. 6E, immunoprecipitation was performed with an antibody that recognizes only the activated form of BAX which exposes an N-terminus epitope (Desagher ct al., 1999; Hsu and You le, 1997). wt or BCL-2 expressing FL5.12 cells were exposed to IL-3 withdrawal as indicated.

BCL-w = molecular target: T1, BCL-w (Homo sapiens, UniProt Q92843); conditions: cited from earlier work
T1 sequence (Q92843 1-193): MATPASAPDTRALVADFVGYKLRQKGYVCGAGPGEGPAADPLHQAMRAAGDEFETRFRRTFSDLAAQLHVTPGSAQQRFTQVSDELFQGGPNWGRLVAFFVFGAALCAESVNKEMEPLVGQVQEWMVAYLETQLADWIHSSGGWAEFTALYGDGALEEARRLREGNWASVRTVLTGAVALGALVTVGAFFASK

CLL cells = test: Annexin-V death assay of freshly isolated primary CLL cells; type: cell-based, human; conditions: five samples

CN(C)CC[C@H](CSc1ccccc1)Nc1ccc(S(=O)(=O)NC(=O)c2ccc(N3CCN(Cc4ccccc4-c4ccc(Cl)cc4)CC3)cc2)cc1[N+](=O)[O-] [ABT-737]
oligomerization of BAX (BAX [1]): oligomerization of BAX within four hours
cytochrome c release and BAX activation (BAX [2]; mitochondria from IL-3 starved cells): restored cytochrome c release and BAX activation
BAX oligomerization (BAX [2]; peptides 30 uM, ABT-737 10 uM, 35 minutes): results in BAX oligomerization
affinity to BCL-w (BCL-w): sub-nanomolar range
response of CLL cells after four hours (CLL cells): responded similarly compared to 48-hour treatment
